The values that follow come from publication PMC5666424, “Marine-Derived 2-Aminoimidazolone Alkaloids. Leucettamine B-Related Polyandrocarpamines Inhibit Mammalian and Protozoan DYRK & CLK Kinases” (Marine Drugs, 2017).

One assay relates to EGFR(L747-T751del,Sins). The assay can be described thus: KinomeScan. It is filed as binding, human. To be noted: 1 μM. The protocol: (§1) Assays were performed essentially as described previously. For most assays, kinase-tagged T7 phage strains were grown in parallel in 24-well blocks in an E. coli host derived from the BL21 strain. E. coli were grown to log-phase and infected with T7 phage from a frozen stock (multiplicity of infection ~0.1) and incubated with shaking at 32 °C until lysis (~90 min). The lysates were centrifuged (6000× g) and filtered (0.2 μm) to remove cell debris. The remaining kinases were produced in HEK-293 cells and subsequently tagged with DNA for qPCR detection. […] The liganded beads were blocked with excess biotin and washed with blocking buffer (SeaBlock (Pierce, ThermoFisher Scientific, Illkirch, France), 1% BSA, 0.05% Tween 20, 1 mM DTT) to remove unbound ligand and to reduce non-specific phage binding. […] An 11-point threefold serial dilution of each test compound was prepared in 100% DMSO at 100× final test concentration which and subsequently diluted to 1× in the assay. All reactions were performed in polystyrene 96-well plates in a final volume of 0.135 mL. […] The kinase concentration in the eluates was measured by qPCR.

The test system of a further assay is FLT3(ITD). The assay can be described thus: KinomeScan. To be noted: 1 μM. It is filed as binding, human. Here is the method:
as §1

The target in another assay is T1, STK39 (Homo sapiens, UniProt Q9UEW8).
T1 construct: purchased DiscoverX (KINOMEscan)
In words: KinomeScan. It is filed as binding. The following applies: 1 μM.

A further assay has as its target T2, NEK5 (Homo sapiens, UniProt Q6P3R8).
T2 construct: purchased DiscoverX (KINOMEscan)
The assay can be described thus: KinomeScan. It is filed as binding. The following applies: 1 μM.

The next assay concerns the target DYRK1A (Homo sapiens, UniProt Q13627). The assay can be described thus: Thr286-cyclin D1 phosphorylation in SH-SY5Y cells. It is filed as cell-based. On the set-up: expressed in transfected cells; host or cells: SH-SY5Y neuroblastoma cells, doxycycline-inducible (gift from Dr. Walter Becker). To be noted: 30 μM, 24 h.

T2 sequence (Q6P3R8 whole entry): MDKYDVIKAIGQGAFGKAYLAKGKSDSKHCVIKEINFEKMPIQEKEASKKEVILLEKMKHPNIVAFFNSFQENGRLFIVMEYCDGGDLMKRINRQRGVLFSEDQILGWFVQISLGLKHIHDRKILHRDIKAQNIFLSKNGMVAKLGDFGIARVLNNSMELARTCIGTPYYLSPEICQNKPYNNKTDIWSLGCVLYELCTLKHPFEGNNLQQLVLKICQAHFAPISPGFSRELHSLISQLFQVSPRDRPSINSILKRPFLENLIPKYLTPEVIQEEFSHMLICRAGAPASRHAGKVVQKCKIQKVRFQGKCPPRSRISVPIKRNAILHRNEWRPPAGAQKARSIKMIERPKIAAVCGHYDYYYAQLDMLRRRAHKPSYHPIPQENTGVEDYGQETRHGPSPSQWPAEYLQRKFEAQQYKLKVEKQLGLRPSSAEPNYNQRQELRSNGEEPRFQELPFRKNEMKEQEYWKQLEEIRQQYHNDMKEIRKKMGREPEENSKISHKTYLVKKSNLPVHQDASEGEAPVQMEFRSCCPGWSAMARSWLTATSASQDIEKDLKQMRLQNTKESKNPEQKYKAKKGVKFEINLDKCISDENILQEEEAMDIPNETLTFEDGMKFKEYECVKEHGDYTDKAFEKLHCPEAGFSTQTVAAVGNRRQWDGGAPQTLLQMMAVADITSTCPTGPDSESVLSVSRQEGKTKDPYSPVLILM
Description for DYRK1A: Cell treatments. SH-SY5Y cells conditionally expressing human DYRK1A [36], under the control of doxycycline (gift from Dr. Walter Becker) were cultured Dulbecco’s Modified Eagle Medium (DMEM): Nutrient Mixture F-12 (DMEM/F-12, Gibco, c/o Invitrogen, Saint Aubin, France) containing 1% Penicillin Streptomycin mixture (Gibco) and 10% fetal bovine serum (FBS, Gibco) in a humidified, 5% CO2 incubator at 37 °C. Cells were split routinely once a week. They were first rinsed with phosphate buffered saline (PBS, Gibco) and detached from the plate bottom using 2 mL Trypsin (Gibco) at 37 °C for 3–4 min. Eight mL of fresh medium were added to the cell suspension and the mix was centrifuged for 3 min at 1000 rpm. The cell pellet was resuspended in fresh medium before seeding (½ dilution) in new 150 mm plates. First, 1 μg/mL doxycycline was used to induce DYRK1A expression and cells were incubated 24 h in a humidified, 5% CO2 incubator at 37 °C. Drugs (0, 3 or 30 μM final) were then added with a final concentration of 0.1% DMSO and cells were incubated for an additional 24 h in a humidified, 5% CO2 incubator at 37 °C. Afterwards, cells were scrapped in medium and centrifuged for 5 min at 3000 rpm at 4 °C. The pellets were washed twice with PBS, centrifuge for 5 min at 10,000 g at 4 °C, snap-frozen in liquid nitrogen and kept at −80 °C.
Western blot analysis. […]

`COc1cc(/C=C2\N=C(N)NC2=O)ccc1O` [Polyandrocarpamine A]: the Score with EGFR(L747-T751del,Sins) was determined as 92; with FLT3(ITD), 100; on STK39 it was 100; at NEK5, 95. At DYRK1A, the “Phosphorylation of cyclin D1 at Thr286” value is listed as “partially inhibited”.
